Measured values: patent US9023789B2, “Amylin analogs and pharmaceutical compositions thereof” (Novo Nordisk A/S, priority 2012, dated 2015)
pIC50: −log10 of the molar value. Read-outs that look alike come from different tables or passages of the source. Numbered stars: 1 amine (or outer) side, 2 acyl side, 3 side chain; on linkers, the order of the positions; unused ones are H or OH. Bridge positions count the residues as written; N and C are the ends. Side chains are listed from the residue outwards. Peptide text beside a SMILES is read from it. * marks the point of attachment. C20 diacid = O=C(O)CCCCCCCCCCCCCCCCCCC(=O)*; γGlu = O=C(O)[C@H](CCC(=O)[*:2])N[*:1]

How the values were obtained:
[1] = ASSAY (IV) determination of solubility; assay type: physicochemical
In short: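 Polypeptide in water at […] mixed 1:1 with 100 mM buffers of pH 3.0-8.0 (glycylglycine pH 3-5, bistrispropane pH 6-8). Held 18 h at room temperature, then centrifuged; concentration remaining in solution measured by UPLC.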

[2] = target: T1, rat amylin receptor (rat calcitonin receptor + rat RAMP 3) (Rattus norvegicus, UniProt P32214+Q9JJ73); test: ASSAY (VI) binding to the rat amylin receptor; details: for pIC50: binding to rat amylin receptor, read-out: rAmylin-R bind IC50
T1 construct: expressed in transfected cells; host or cells: BHK tk'ts 13 (transient, FuGENE 6), membranes
T1 sequence (P32214 25-479 isoform P32214-2 limits assumed): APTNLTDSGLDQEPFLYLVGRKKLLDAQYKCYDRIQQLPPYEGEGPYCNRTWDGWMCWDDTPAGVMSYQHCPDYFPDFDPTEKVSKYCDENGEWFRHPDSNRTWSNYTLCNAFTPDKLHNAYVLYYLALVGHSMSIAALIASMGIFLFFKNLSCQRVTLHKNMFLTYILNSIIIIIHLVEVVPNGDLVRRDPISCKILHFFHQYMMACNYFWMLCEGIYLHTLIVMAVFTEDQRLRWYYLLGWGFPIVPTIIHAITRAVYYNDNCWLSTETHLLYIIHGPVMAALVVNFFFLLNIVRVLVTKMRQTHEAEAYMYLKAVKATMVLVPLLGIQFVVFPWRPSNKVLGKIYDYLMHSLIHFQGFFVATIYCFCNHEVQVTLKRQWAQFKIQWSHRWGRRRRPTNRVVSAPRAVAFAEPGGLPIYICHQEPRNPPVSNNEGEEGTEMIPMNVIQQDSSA
T1 sequence (Q9JJ73 23-147 partner): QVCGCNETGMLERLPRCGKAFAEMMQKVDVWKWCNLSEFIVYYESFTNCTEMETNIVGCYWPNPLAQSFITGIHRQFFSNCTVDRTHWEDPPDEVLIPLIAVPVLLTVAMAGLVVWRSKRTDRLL
In short: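 This assay measured binding to the rat amylin receptor. BHK tk′ts 13 cells were transiently transfected with the rat calcitonin receptor using FuGENE® 6 (Roche), following the manufacturer's recommendations. About 48 hours after transfection, the cells were harvested and membranes were prepared from them for the binding determination.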

rat calcitonin receptor = target: T2, rat calcitonin receptor (Rattus norvegicus, UniProt P32214); test: ASSAY (VIII) binding to the rat calcitonin receptor; details: Table 7, read-out: rCTR bind IC50
T2 construct: expressed in transfected cells; host or cells: BHK tk'ts 13 (transient, FuGENE 6), membranes
T2 sequence (P32214 25-479 isoform P32214-2 limits assumed): T1 sequence (P32214 25-479 isoform P32214-2 limits assumed)
In short: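 Membranes were prepared from BHK tk′ts 13 cells transiently transfected with rat calcitonin receptor. Cells were grown in DMEM with 10% FBS and harvested approximately 48 hours after transfection.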

[3] = target: T3, human amylin receptor (membranes from Amylin 3(a)/CRE-luc cells) (Homo sapiens, UniProt O60896+P30988); test: ASSAY (V) binding to the human amylin receptor (SPA, 125I-rat amylin);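 also: competition binding of cell membranes (35 ng/µL) mixed with SPA beads in 384-well plates at 40 µL total volume, read by scintillation counting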
T3 construct: expressed in transfected cells
T3 sequence (P30988 25-474): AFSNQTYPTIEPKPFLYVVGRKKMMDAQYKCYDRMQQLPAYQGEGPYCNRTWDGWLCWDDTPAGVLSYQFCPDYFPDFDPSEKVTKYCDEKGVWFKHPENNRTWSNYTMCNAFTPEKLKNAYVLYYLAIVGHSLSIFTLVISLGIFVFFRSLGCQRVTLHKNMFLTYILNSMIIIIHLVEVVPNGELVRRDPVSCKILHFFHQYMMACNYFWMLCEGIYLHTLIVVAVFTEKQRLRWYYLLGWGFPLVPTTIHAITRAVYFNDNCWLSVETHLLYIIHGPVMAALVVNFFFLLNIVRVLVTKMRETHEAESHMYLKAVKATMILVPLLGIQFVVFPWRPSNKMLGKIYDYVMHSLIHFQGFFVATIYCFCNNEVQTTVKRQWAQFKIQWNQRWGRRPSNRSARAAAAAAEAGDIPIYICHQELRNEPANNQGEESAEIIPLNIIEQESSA
T3 sequence (O60896 24-148 partner): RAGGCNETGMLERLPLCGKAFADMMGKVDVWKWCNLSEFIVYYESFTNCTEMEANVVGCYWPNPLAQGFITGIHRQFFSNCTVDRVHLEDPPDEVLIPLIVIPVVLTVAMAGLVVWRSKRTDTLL

Sprague Dawley (SD) rats = test: ASSAY (I) efficacy testing on appetite (food intake) using an ad libitum fed rat model; assay type: in vivo; details: rat
In short: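 Ad libitum fed SD rats (200–250 g) were housed singly on a reversed light/dark cycle and given one 0.01–3 mg/kg dose ip, po or sc just before lights-off, with 5–8 per dose group plus vehicle controls. Food intake was recorded hourly for 7 h, then at 24 h and sometimes 48 h; Grubbs outliers were excluded.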

[4] = bistrispropane buffer, pH 6.5, read-out: Solubility pH 6.5 Concentration
[5] = bistrispropane buffer, pH 7.5, read-out: Solubility pH 7.5 Concentration
[6] = bistrispropane buffer, pH 6.0, read-out: Solubility pH 6.0 Concentration
[7] = bistrispropane buffer, pH 7.0, read-out: Solubility pH 7.0 Concentration
[8] = bistrispropane buffer, pH 8.0, read-out: Solubility pH 8.0 Concentration
[9] = glycylglycine buffer, pH 3.0, read-out: Solubility pH 3.0 Concentration
[10] = glycylglycine buffer, pH 4.0, read-out: Solubility pH 4.0 Concentration
[11] = glycylglycine buffer, pH 5.0, read-out: Solubility pH 5.0 Concentration
[12] = Table 7, rat binding selectivity, rCTR IC50 / rAmylin-R IC50
[13] = Table 7a (preferred compounds), rat binding selectivity, rCTR IC50 / rAmylin-R IC50
[14] = ratio of rCTR bind IC50 to rAmylin-R bind IC50
[15] = Table 5, selectivity, hCTR bind IC50 / hAmylin-R bind IC50
[16] = Table 5a, selectivity, hCTR bind IC50 / hAmylin-R bind IC50
[17] = Table 5b, selectivity, hCTR bind IC50 / hAmylin-R bind IC50
[18] = Table 5c, selectivity, hCTR bind IC50 / hAmylin-R bind IC50
[19] = Table 7, human binding selectivity, included for comparison
[20] = Table 7a (preferred compounds), human binding selectivity, included for comparison
[21] = ratio of human calcitonin receptor binding IC50 to human amylin receptor binding IC50

CC[C@H](C)[C@H](NC(=O)[C@H](C)NC(=O)CNC(=O)[C@H](Cc1ccccc1)NC(=O)[C@H](CC(N)=O)NC(=O)[C@@H]1CCCN1C(=O)[C@H](CO)NC(=O)[C@H](CO)NC(=O)[C@H](Cc1c[nH]cn1)NC(=O)[C@H](CCCNC(=N)N)NC(=O)[C@H](CC(C)C)NC(=O)[C@H](Cc1ccccc1)NC(=O)[C@H](CCCNC(=N)N)NC(=O)[C@H](C)NC(=O)[C@H](CC(C)C)NC(=O)[C@H](CCCNC(=N)N)NC(=O)[C@H](CCC(N)=O)NC(=O)[C@@H](NC(=O)[C@H](C)NC(=O)[C@@H]1CSSC[C@H](NC(=O)[C@@H](N)CCCCNC(=O)CC[C@H](NC(=O)CCCCCCCCCCCCCCCCCCC(=O)O)C(=O)O)C(=O)N[C@@H](CC(N)=O)C(=O)N[C@@H]([C@@H](C)O)C(=O)N[C@@H](C)C(=O)N[C@@H]([C@@H](C)O)C(=O)N1)[C@@H](C)O)C(=O)N1CCC[C@H]1C(=O)N[C@@H](CO)C(=O)N[C@@H](CO)C(=O)N[C@H](C(=O)N[C@@H](CC(N)=O)C(=O)N[C@H](C(=O)NCC(=O)N1CCC[C@H]1C(=O)N[C@@H](CC(N)=O)C(=O)N[C@H](C(=O)N[C@@H](Cc1ccc(O)cc1)C(N)=O)[C@@H](C)O)C(C)C)[C@@H](C)O [Example 65] (H-K([γGlu-C20 diacid])CNTATCATQRLARFLRHSSPNFGAIPSSTNVGPNTY-NH2; disulfide 2-7 (inferred); N-terminus assumed)
solubility at 18 h [1, 4]: ≥ 200 µM
solubility at 18 h [1, 5]: ≥ 200 µM
solubility at 18 h [1, 6]: ≥ 200 µM
solubility at 18 h [1, 7]: ≥ 200 µM
solubility at 18 h [1, 8]: ≥ 200 µM
solubility at 18 h [1, 9]: ≥ 200 µM
solubility at 18 h [1, 10]: ≥ 200 µM
solubility at 18 h [1, 11]: ≥ 200 µM
pIC50 ([2]; Table 7): 8.94
Ratio rCT/rAmylin binding [2, 12]: 93.2
Ratio rCT/rAmylin binding [2, 13]: 93.2
Ratio rCT/rAmylin binding [2, 14]: 93.2
pIC50 (rat calcitonin receptor): 6.97
pIC50 ([3]; Table 4, read-out: hAmylin-R bind IC50): 9.19
Ratio hCT/hAmylin binding [3, 15]: 82.4
Ratio hCT/hAmylin binding [3, 16]: 82.4
Ratio hCT/hAmylin binding [3, 17]: 82.4
Ratio hCT/hAmylin binding [3, 18]: 82.4
Ratio hCT/hAmylin binding [3, 19]: 82.4
Ratio hCT/hAmylin binding [3, 20]: 82.4
Ratio hCT/hAmylin binding [3, 21]: 82.4
Food intake reduction 0-24 h 30 nmol/kg (%) (Sprague Dawley (SD) rats; 30 nmol/kg, 0-24 h): 10%
Food intake reduction 24-48 h 30 nmol/kg (%) (Sprague Dawley (SD) rats; 30 nmol/kg, 24-48 h): 0%

CC[C@H](C)[C@H](NC(=O)[C@H](C)NC(=O)CNC(=O)[C@H](Cc1ccccc1)NC(=O)[C@H](CC(N)=O)NC(=O)[C@@H]1CCCN1C(=O)[C@H](CO)NC(=O)[C@H](CO)NC(=O)[C@H](Cc1c[nH]cn1)NC(=O)[C@H](CCCNC(=N)N)NC(=O)[C@H](CC(C)C)NC(=O)[C@H](Cc1ccccc1)NC(=O)[C@H](CC(=O)O)NC(=O)[C@H](C)NC(=O)[C@H](CC(C)C)NC(=O)[C@H](CCCNC(=N)N)NC(=O)[C@H](CCC(N)=O)NC(=O)[C@@H](NC(=O)[C@H](C)NC(=O)[C@@H]1CSSC[C@H](NC(=O)[C@@H](N)CCCCNC(=O)CC[C@H](NC(=O)CC[C@H](NC(=O)CCCCCCCCCCCCCCCCCCC(=O)O)C(=O)O)C(=O)O)C(=O)N[C@@H](CC(N)=O)C(=O)N[C@@H]([C@@H](C)O)C(=O)N[C@@H](C)C(=O)N[C@@H]([C@@H](C)O)C(=O)N1)[C@@H](C)O)C(=O)N1CCC[C@H]1C(=O)N[C@@H](CO)C(=O)N[C@@H](CO)C(=O)N[C@H](C(=O)N[C@@H](CC(N)=O)C(=O)N[C@H](C(=O)NCC(=O)N1CCC[C@H]1C(=O)N[C@@H](CCC(=O)O)C(=O)N[C@H](C(=O)N[C@@H](Cc1ccc(O)cc1)C(N)=O)[C@@H](C)O)C(C)C)[C@@H](C)O [Example 122] (H-K([γGlu-γGlu-C20 diacid])CNTATCATQRLADFLRHSSPNFGAIPSSTNVGPETY-NH2; disulfide 2-7 (inferred); N-terminus assumed)
solubility at 18 h [1, 4]: ≥ 200 µM
solubility at 18 h [1, 5]: ≥ 200 µM
solubility at 18 h [1, 6]: ≥ 200 µM
solubility at 18 h [1, 7]: ≥ 200 µM
solubility at 18 h [1, 8]: ≥ 200 µM
solubility at 18 h [1, 9]: ≥ 200 µM
solubility at 18 h [1, 10]: ≥ 200 µM
solubility at 18 h [1, 11]: ≥ 200 µM
pIC50 ([2]; Table 7): 9.49
Ratio rCT/rAmylin binding [2, 12]: 98.5
Ratio rCT/rAmylin binding [2, 13]: 98.5
Ratio rCT/rAmylin binding [2, 14]: 98.5
pIC50 (rat calcitonin receptor): 7.50
Ratio hCT/hAmylin binding [3, 15]: 49.8
Ratio hCT/hAmylin binding [3, 16]: 49.8
Ratio hCT/hAmylin binding [3, 17]: 49.8
Ratio hCT/hAmylin binding [3, 18]: 49.8
Ratio hCT/hAmylin binding [3, 19]: 49.8
Ratio hCT/hAmylin binding [3, 20]: 49.8
Ratio hCT/hAmylin binding [3, 21]: 49.8
Food intake reduction 0-24 h 3 nmol/kg (%) (Sprague Dawley (SD) rats; 3 nmol/kg, 0-24 h): 50%
Food intake reduction 24-48 h 3 nmol/kg (%) (Sprague Dawley (SD) rats; 3 nmol/kg, 24-48 h): 50%
